The values that follow come from patent US10857138B2, “Pharmaceutical compositions comprising antibacterial agents” (WOCKHARDT LIMITED, priority 2014, dated 2020).

For assay [1], the system named is Klebsiella pneumoniae NCTC 13443 strain producing NDM-1, SHV and TEM beta-lactamase enzymes. Put plainly: Time kill study against K. pneumoniae NCTC 13443. The format is cell-based. Conditions: for Bacterial count (Log10CFU/ml) 2 hours / Bacterial count (Log10CFU/ml) 4 hours / Bacterial count (Log10CFU/ml) 6 hours / Bacterial count (Log10CFU/ml) 8 hours: each agent at 4 mcg/ml, alone or in combination; for Effect on bacterial count when used alone: used alone at 4 μg/ml, throughout the duration of the study. As to the method:
(§1) In a typical time kill study, the freshly grown cultures were diluted to the required cell density (initial starting inoculum) in Cation adjusted Muller Hinton broth medium (BD, USA). The antibacterial agents (either alone or in combination) at the required concentrations were added into the culture-containing medium. The samples were incubated under shaking condition (120 rpm) at 37° C. Enumeration of viable bacterial count was done every 2 hour by diluting in normal saline and plating on to the Tryptic Soya Agar plates (BD, USA). The plates were incubated for 24 hours to arrive at the viable bacterial count. […] In general, the decrease of 1 Log CFU/ml, corresponds to 90% killing of bacteria. Similarly, 2 Log CFU/ml reductions indicates to 99% killing of bacteria and 3 Log CFU/ml reductions is equal to 99.9% killing of bacteria.
(§2) The assay without any antibacterial agent was taken as control.

Assay [2] relates to Klebsiella pneumoniae B 88 strain producing NDM-1, SHV, TEM and CTXM beta-lactamase enzymes. Put plainly: Time kill study against K. pneumoniae B 88. The format is cell-based. Also on record: Effect on bacterial count when used alone: dose or concentration left out as unconfirmed. To be noted: for Bacterial count (Log10CFU/ml) 2 hours / Bacterial count (Log10CFU/ml) 4 hours / Bacterial count (Log10CFU/ml) 6 hours / Bacterial count (Log10CFU/ml) 8 hours: each agent at 4 mcg/ml, alone or in combination; for Effect on bacterial count when used alone: used alone at 4 mcg/ml, throughout the duration of the study. The method, then:
as §1, §2

`C[C@H]1[C@H](NC(=O)/C(=N\OC(C)(C)C(=O)O)c2csc(N)n2)C(=O)N1S(=O)(=O)O` [Aztreonam, reference compound]: in assay [1], the “Bacterial count (Log10CFU/ml) 2 hours” value came to 8.38 Log10CFU/ml, the “Bacterial count (Log10CFU/ml) 4 hours” value amounted to 8.65 Log10CFU/ml, the “Bacterial count (Log10CFU/ml) 6 hours” value was 9.02 Log10CFU/ml and the “Bacterial count (Log10CFU/ml) 8 hours” value is listed as 9.55 Log10CFU/ml. Further, the “Effect on bacterial count when used alone” value (shortened to “Effect on bacterial count”) in assay [1] is given as “not effective to decrease the bacterial count”. Further, in assay [2], the “Bacterial count (Log10CFU/ml) 2 hours” value is reported as 8.16 Log10CFU/ml, the “Bacterial count (Log10CFU/ml) 4 hours” value came to 8.7 Log10CFU/ml, the “Bacterial count (Log10CFU/ml) 6 hours” value was 8.88 Log10CFU/ml and the “Bacterial count (Log10CFU/ml) 8 hours” value turned out to be 9.04 Log10CFU/ml. In addition, in assay [2], the “Effect on bacterial count” value is on record as “not effective to decrease the bacterial count”.

Take `N#C[C@@H]1CC[C@@H]2CN1C(=O)N2OS(=O)(=O)[O-].[Na+]` [Compound A, Sodium salt of trans-7-oxo-6-sulphooxy-1,6-diazabicyclo[3.2.1]-octane-2-carbonitrile]: in assay [1], the “Bacterial count (Log10CFU/ml) 2 hours” value is 8.3 Log10CFU/ml, the “Bacterial count (Log10CFU/ml) 4 hours” value was 8.5 Log10CFU/ml, the “Bacterial count (Log10CFU/ml) 6 hours” value was 8.8 Log10CFU/ml and the “Bacterial count (Log10CFU/ml) 8 hours” value turned out to be 9 Log10CFU/ml. For the same compound, the “Effect on bacterial count” value in assay [1] is on record as “not effective to decrease the bacterial count”. In addition, in assay [2], the “Bacterial count (Log10CFU/ml) 2 hours” value is 8 Log10CFU/ml, the “Bacterial count (Log10CFU/ml) 4 hours” value is listed as 8.2 Log10CFU/ml, the “Bacterial count (Log10CFU/ml) 6 hours” value was 8.5 Log10CFU/ml and the “Bacterial count (Log10CFU/ml) 8 hours” value amounted to 8.8 Log10CFU/ml. Besides, the “Effect on bacterial count” value in assay [2] is recorded as “not effective to decrease the bacterial count”.

In the case of `NC(=O)c1nnc([C@@H]2CC[C@@H]3CN2C(=O)N3OS(=O)(=O)O)o1` [Compound B], in assay [1], the “Bacterial count (Log10CFU/ml) 2 hours” value turned out to be 8.3 Log10CFU/ml, the “Bacterial count (Log10CFU/ml) 4 hours” value is listed as 8.5 Log10CFU/ml, the “Bacterial count (Log10CFU/ml) 6 hours” value worked out at 8.8 Log10CFU/ml and the “Bacterial count (Log10CFU/ml) 8 hours” value is on record as 8.9 Log10CFU/ml. Further, the “Effect on bacterial count” value in assay [1] is reported as “not effective to decrease the bacterial count”. In assay [2], the “Bacterial count (Log10CFU/ml) 2 hours” value came out at 7.98 Log10CFU/ml, the “Bacterial count (Log10CFU/ml) 4 hours” value was 8.2 Log10CFU/ml, the “Bacterial count (Log10CFU/ml) 6 hours” value is 8.50 Log10CFU/ml and the “Bacterial count (Log10CFU/ml) 8 hours” value is recorded as 8.9 Log10CFU/ml. The “Effect on bacterial count” value in assay [2] was “not effective to decrease the bacterial count”.

Consider `O=C1N2C[C@@H](CC[C@H]2c2nnc(C3CCNCC3)o2)N1OS(=O)(=O)O` [Compound C], for which, in assay [1], the “Bacterial count (Log10CFU/ml) 2 hours” value is 8.2 Log10CFU/ml, the “Bacterial count (Log10CFU/ml) 4 hours” value was found to be 8.9 Log10CFU/ml, the “Bacterial count (Log10CFU/ml) 6 hours” value was 9 Log10CFU/ml and the “Bacterial count (Log10CFU/ml) 8 hours” value worked out at 9.5 Log10CFU/ml. Besides, the “Effect on bacterial count” value in assay [1] was “not effective to decrease the bacterial count”. In addition, in assay [2], the “Bacterial count (Log10CFU/ml) 2 hours” value is 8.1 Log10CFU/ml, the “Bacterial count (Log10CFU/ml) 4 hours” value stood at 8.15 Log10CFU/ml, the “Bacterial count (Log10CFU/ml) 6 hours” value is 8.65 Log10CFU/ml and the “Bacterial count (Log10CFU/ml) 8 hours” value came to 8.9 Log10CFU/ml. The “Effect on bacterial count” value in assay [2] was “not effective to decrease the bacterial count”.

Turning to `O=C1N2C[C@@H](CC[C@H]2c2nnc(CC3CNC3)o2)N1OS(=O)(=O)O` [Compound D], in assay [1], the “Bacterial count (Log10CFU/ml) 2 hours” value was found to be 8.3 Log10CFU/ml, the “Bacterial count (Log10CFU/ml) 4 hours” value was determined as 8.55 Log10CFU/ml, the “Bacterial count (Log10CFU/ml) 6 hours” value was 8.95 Log10CFU/ml and the “Bacterial count (Log10CFU/ml) 8 hours” value came out at 9.2 Log10CFU/ml. The “Effect on bacterial count” value in assay [1] is on record as “not effective to decrease the bacterial count”. For the same compound, in assay [2], the “Bacterial count (Log10CFU/ml) 2 hours” value came to 8.05 Log10CFU/ml, the “Bacterial count (Log10CFU/ml) 4 hours” value was 8.3 Log10CFU/ml, the “Bacterial count (Log10CFU/ml) 6 hours” value was determined as 8.7 Log10CFU/ml and the “Bacterial count (Log10CFU/ml) 8 hours” value is given as 8.8 Log10CFU/ml. Moreover, the “Effect on bacterial count” value in assay [2] is given as “not effective to decrease the bacterial count”.

In the case of `O=C(NNC(=O)[C@@H]1CC[C@@H]2CN1C(=O)N2OS(=O)(=O)O)[C@@H]1CCCNC1` [Compound E, (2S,5R)-7-Oxo-6-sulphooxy-2-[N′—((R)-piperidine-3-carbonyl)-hydrazinocarbonyl]-1,6-diaza-bicyclo[3.2.1]octane], in assay [1], the “Bacterial count (Log10CFU/ml) 2 hours” value is 8.35 Log10CFU/ml, the “Bacterial count (Log10CFU/ml) 4 hours” value was determined as 8.6 Log10CFU/ml, the “Bacterial count (Log10CFU/ml) 6 hours” value turned out to be 8.8 Log10CFU/ml and the “Bacterial count (Log10CFU/ml) 8 hours” value is reported as 8.9 Log10CFU/ml. The “Effect on bacterial count” value in assay [1] was “not effective to decrease the bacterial count”. Moreover, in assay [2], the “Bacterial count (Log10CFU/ml) 2 hours” value stood at 7.9 Log10CFU/ml, the “Bacterial count (Log10CFU/ml) 4 hours” value is recorded as 8.3 Log10CFU/ml, the “Bacterial count (Log10CFU/ml) 6 hours” value is 8.8 Log10CFU/ml and the “Bacterial count (Log10CFU/ml) 8 hours” value amounted to 8.9 Log10CFU/ml. In assay [2], the “Effect on bacterial count” value is “not effective to decrease the bacterial count”.

Regarding `O=C(NOC[C@@H]1CCCN1)[C@@H]1CC[C@@H]2CN1C(=O)N2OS(=O)(=O)O` [Compound F, (2S,5R)-7-Oxo-N-[(2S)-pyrrolidin-2-ylmethoxy]-6-(sulfooxy)-1,6-diaza bicyclo[3.2.1]octane-2-carboxamide], in assay [1], the “Bacterial count (Log10CFU/ml) 2 hours” value is reported as 8.4 Log10CFU/ml, the “Bacterial count (Log10CFU/ml) 4 hours” value is 8.7 Log10CFU/ml, the “Bacterial count (Log10CFU/ml) 6 hours” value amounted to 8.9 Log10CFU/ml and the “Bacterial count (Log10CFU/ml) 8 hours” value stood at 9.1 Log10CFU/ml. Besides, the “Effect on bacterial count” value in assay [1] is “not effective to decrease the bacterial count”. Moreover, in assay [2], the “Bacterial count (Log10CFU/ml) 2 hours” value was found to be 8 Log10CFU/ml, the “Bacterial count (Log10CFU/ml) 4 hours” value is recorded as 8.2 Log10CFU/ml, the “Bacterial count (Log10CFU/ml) 6 hours” value amounted to 8.35 Log10CFU/ml and the “Bacterial count (Log10CFU/ml) 8 hours” value amounted to 8.7 Log10CFU/ml. In addition, the “Effect on bacterial count” value in assay [2] is “not effective to decrease the bacterial count”.

In the case of `O=C(NNC(=O)[C@@H]1CC[C@@H]2CN1C(=O)N2OS(=O)(=O)O)[C@@H]1CCNC1` [Compound G, (2S,5R)-7-Oxo-6-sulphooxy-2-[N′—((R)-pyrrolidine-3-carbonyl)-hydrazinocarbonyl]-1,6-diaza-bicyclo[3.2.1]octane], in assay [1], the “Bacterial count (Log10CFU/ml) 2 hours” value is 8.36 Log10CFU/ml, the “Bacterial count (Log10CFU/ml) 4 hours” value was 8.78 Log10CFU/ml, the “Bacterial count (Log10CFU/ml) 6 hours” value was determined as 8.9 Log10CFU/ml and the “Bacterial count (Log10CFU/ml) 8 hours” value is 9.2 Log10CFU/ml. Also, the “Effect on bacterial count” value in assay [1] was “not effective to decrease the bacterial count”. Moreover, in assay [2], the “Bacterial count (Log10CFU/ml) 2 hours” value is 7.95 Log10CFU/ml, the “Bacterial count (Log10CFU/ml) 4 hours” value is 8.05 Log10CFU/ml, the “Bacterial count (Log10CFU/ml) 6 hours” value worked out at 8.7 Log10CFU/ml and the “Bacterial count (Log10CFU/ml) 8 hours” value was determined as 8.98 Log10CFU/ml. For the same compound, the “Effect on bacterial count” value in assay [2] is “not effective to decrease the bacterial count”.

On to `O=C(NOC[C@@H]1CCCCN1)[C@@H]1CC[C@@H]2CN1C(=O)N2OS(=O)(=O)O` [Compound H, (2S,5R)-7-Oxo-N-[(2S)-piperidine-2-ylmethyloxy]-6-(sulfooxy)-1,6-diazabicyclo[3.2.1]octane-2-carboxamide], for which, in assay [1], the “Bacterial count (Log10CFU/ml) 2 hours” value turned out to be 8.35 Log10CFU/ml, the “Bacterial count (Log10CFU/ml) 4 hours” value is listed as 8.48 Log10CFU/ml, the “Bacterial count (Log10CFU/ml) 6 hours” value came to 8.9 Log10CFU/ml and the “Bacterial count (Log10CFU/ml) 8 hours” value turned out to be 9.1 Log10CFU/ml. Moreover, the “Effect on bacterial count” value in assay [1] is given as “not effective to decrease the bacterial count”. In assay [2], the “Bacterial count (Log10CFU/ml) 2 hours” value is listed as 8.15 Log10CFU/ml, the “Bacterial count (Log10CFU/ml) 4 hours” value is recorded as 8.3 Log10CFU/ml, the “Bacterial count (Log10CFU/ml) 6 hours” value was determined as 8.65 Log10CFU/ml and the “Bacterial count (Log10CFU/ml) 8 hours” value is given as 8.98 Log10CFU/ml. The “Effect on bacterial count” value in assay [2] is given as “not effective to decrease the bacterial count”.

On to `C[C@H](N)c1nnc([C@@H]2CC[C@@H]3CN2C(=O)N3OS(=O)(=O)O)o1` [Compound I, trans-sulphuric acid mono-[2-(5-((S)-1-amino-ethyl)-[1,3,4]-oxadiazol-2-yl)-7-oxo-1,6-diazabicyclo[3.2.1]-octan-6-yl] ester], for which, in assay [1], the “Bacterial count (Log10CFU/ml) 2 hours” value was determined as 8.36 Log10CFU/ml, the “Bacterial count (Log10CFU/ml) 4 hours” value amounted to 8.79 Log10CFU/ml, the “Bacterial count (Log10CFU/ml) 6 hours” value came out at 8.9 Log10CFU/ml and the “Bacterial count (Log10CFU/ml) 8 hours” value turned out to be 9.1 Log10CFU/ml. Moreover, the “Effect on bacterial count” value in assay [1] is on record as “not effective to decrease the bacterial count”. Besides, in assay [2], the “Bacterial count (Log10CFU/ml) 2 hours” value was found to be 8.36 Log10CFU/ml, the “Bacterial count (Log10CFU/ml) 4 hours” value is recorded as 8.79 Log10CFU/ml, the “Bacterial count (Log10CFU/ml) 6 hours” value is listed as 8.9 Log10CFU/ml and the “Bacterial count (Log10CFU/ml) 8 hours” value is on record as 9.1 Log10CFU/ml. Moreover, in assay [2], the “Effect on bacterial count” value is on record as “not effective to decrease the bacterial count”.
